The values that follow come from article PMC6843816, “Angiotensin Converting Enzyme (ACE)-Peptide Interactions: Inhibition Kinetics, In Silico Molecular Docking and Stability Study of Three Novel Peptides Generated from Palm Kernel Cake Proteins” (Biomolecules, 2019).

“And” between values parts separate entries of the source, which are not always exact repeats. Equal values may be shown once. Read-outs that look alike come from different tables or passages of the source. Peptide text beside a SMILES is read from it.

What is called IC50 is the concentration at which inhibition is half-maximal.

In one data set the target is ACE. Conditions: read-out: Kiu, cited from earlier work.
For data set [1], the target named is T1, angiotensin-converting enzyme (ACE) (Oryctolagus cuniculus, UniProt P12822).
T1 construct: Angiotensin-I-converting enzyme (rabbit lung); purchased Sigma Chemical Co., (St Louis, MO, USA); host or cells: rabbit lung tissue
T1 sequence (P12822 34-1310): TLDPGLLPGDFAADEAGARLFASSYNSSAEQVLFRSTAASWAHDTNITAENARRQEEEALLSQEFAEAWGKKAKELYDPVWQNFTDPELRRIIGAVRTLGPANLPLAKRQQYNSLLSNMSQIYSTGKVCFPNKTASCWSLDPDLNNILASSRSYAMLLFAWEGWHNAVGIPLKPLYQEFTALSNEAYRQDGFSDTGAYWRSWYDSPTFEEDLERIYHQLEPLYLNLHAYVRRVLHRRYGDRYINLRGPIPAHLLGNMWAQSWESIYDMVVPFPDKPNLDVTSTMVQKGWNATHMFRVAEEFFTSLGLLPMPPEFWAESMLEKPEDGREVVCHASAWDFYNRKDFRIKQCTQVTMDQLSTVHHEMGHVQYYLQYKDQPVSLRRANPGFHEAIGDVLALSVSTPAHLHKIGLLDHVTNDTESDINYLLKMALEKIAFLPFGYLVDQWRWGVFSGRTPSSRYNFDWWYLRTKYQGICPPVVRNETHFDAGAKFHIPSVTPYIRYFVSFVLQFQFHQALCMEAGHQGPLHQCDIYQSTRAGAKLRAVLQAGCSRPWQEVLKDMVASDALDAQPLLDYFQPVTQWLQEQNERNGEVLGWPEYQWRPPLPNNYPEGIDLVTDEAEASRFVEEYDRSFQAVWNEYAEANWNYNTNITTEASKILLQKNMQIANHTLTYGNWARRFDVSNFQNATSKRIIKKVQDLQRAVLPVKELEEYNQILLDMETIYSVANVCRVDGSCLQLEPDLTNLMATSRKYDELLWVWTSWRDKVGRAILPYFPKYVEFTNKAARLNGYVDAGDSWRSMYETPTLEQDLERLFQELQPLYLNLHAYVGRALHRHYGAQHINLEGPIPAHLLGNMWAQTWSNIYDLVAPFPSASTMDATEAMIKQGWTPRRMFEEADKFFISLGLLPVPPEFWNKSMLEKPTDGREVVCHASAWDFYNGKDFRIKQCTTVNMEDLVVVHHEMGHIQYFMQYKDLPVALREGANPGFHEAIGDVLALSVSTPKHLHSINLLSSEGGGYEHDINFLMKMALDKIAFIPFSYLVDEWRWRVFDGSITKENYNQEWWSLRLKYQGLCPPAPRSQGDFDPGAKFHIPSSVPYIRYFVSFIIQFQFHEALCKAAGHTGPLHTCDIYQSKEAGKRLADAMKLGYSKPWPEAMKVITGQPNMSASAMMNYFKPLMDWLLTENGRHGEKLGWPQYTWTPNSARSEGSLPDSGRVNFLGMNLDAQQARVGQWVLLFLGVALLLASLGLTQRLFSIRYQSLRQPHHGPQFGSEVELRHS
Briefly: Kinetics study of ACE inhibition (Michaelis-Menten and Lineweaver-Burk plots, HHL substrate). Type of data set: biochemical, rabbit. To be noted: from plot of 1/Vmax against inhibitor concentration; read-out: Kiu (mM) (enzyme-inhibitor dissociation constant). The procedure:
Mode of enzyme inhibition, maximum initial velocity (Vmax), Michaelis-Menten constant (Km), inhibitory constant (Ki) and catalytic efficiency were determined using Michaeles-Menten and Lineweaver-Burk plots of 1/v versus 1/[S].
Enzyme activity was shown as nmol hippuric acid produced per min of enzymatic reaction. Michaelis-Menten and Lineweaver-Burk plots were created using GRAPHPAD PRISM 6.07 (GraphPad, Software Inc., San Diego, CA, USA) software. Vmax and Km were calculated using the same software. Kiu was calculated from the plot of 1/Vmax against inhibitor concentration at the intercept on the inhibitor concentration axis).

Data set [2] has as its target T1, angiotensin-converting enzyme (ACE). The data set is described as follows: Peptide stability study: hydrolysis of peptides by ACE, RP-HPLC. In kind it is in vitro ADME, rabbit. Conditions: 37 °C, peptide 4 mM; for metabolised at 0.5 h, 2.4 mM / metabolised at 1 h, 2.4 mM / metabolised at 2 h, 2.4 mM / metabolised at 3 h, 2.4 mM: rabbit, isolated angiotensin-converting enzyme (ACE), read-out: Cleavage (%); for metabolised at 1 h, 2.4 mM: incubation with ACE 1 h; for metabolised at 2 h, 2.4 mM: incubation with ACE 2 h. The procedure:
Peptide stability study was carried out using the method described by Forghani et al. and Yang, Marczak, Yokoo, Usui and Yoshikawa with modifications. Each peptide solution (225 µL), at a concentration of 4 mM, was incubated with 150 µl of ACE (100 mU/mL) at 37 °C and incubation time of 0, 0.5, 1, 2 and 3 h. Peptide samples were withdrawn at their respective incubation time separately and kept in ice prior to analysis by HPLC. A 20-µL sample was loaded onto a Hypersil GOLD C18 column (4.6 × 250 mm) attached to a LC 20AT apparatus (Shimadzu Co., Kyoto, Japan). The column was conditioned with eluent A (0.1% TFA in DW) and eluted with 100% eluent A from 0 to 10 min. The peptides were eluted with eluent B (0.1% TFA in CH3CN) with a gradient elution of 0–100% for 10–50 min. The absorbance was read at 215 nm.

Data set [3] shares this target. The data set is described as follows: ACE-inhibitory capacity of peptides with and without pre-incubation with ACE; IC50. Conditions: for IC50: unit given, not in Table 5, read-out: ACE Inhibition (IC50); for ACE-Inhibitory Capacity (%) Without Pre-Incubation: without pre-incubation with ACE. In kind it is biochemical, rabbit.
[4] abbreviates: peptides generated from Stichopus horrens.

Consider SAAVGSP, for which the Ki at ACE (setting [4]) is 1570 µM.
As for VSRHFASYAN, at ACE (setting [4]), the Ki is 610 µM.
As to `CC(C)C[C@H](NC(=O)[C@H](CC(C)C)NC(=O)[C@H](C)NC(=O)[C@H](Cc1ccc(O)cc1)NC(=O)[C@H](Cc1c[nH]cn1)NC(=O)CNC(=O)[C@H](C)NC(=O)CNC(=O)[C@H](CCC(=O)O)NC(=O)[C@H](CCC(N)=O)NC(=O)[C@@H](NC(=O)CN)C(C)C)C(=O)O` [GVQEGAGHYALL] (H-GVQEGAGHYALL-OH; N-terminus and C-terminus assumed), in data set [1], the Ki was determined as 3.18 mM. Also, in data set [2] (incubation with ACE 0.5 h), the “Cleavage (%)” value is given as 46% and the metabolised at 0.5 h, 2.4 mM turned out to be 46 ± 1.5%. In data set [2] (incubation with ACE 3 h), the “Cleavage (%)” value is recorded as 97% and the metabolised at 3 h, 2.4 mM was 97 ± 3.4%. Further, in data set [2], the metabolised at 1 h, 2.4 mM came out at 65 ± 2.6% and the metabolised at 2 h, 2.4 mM is 86 ± 3.1%. In data set [3], the IC50 stood at 239 µM, the “ACE-Inhibitory Capacity (%) With Pre-Incubation” value was determined as 75 ± 2.11% and the “ACE-Inhibitory Capacity (%) Without Pre-Incubation” value is on record as 70 ± 1.15%.
In the case of `CC(C)C[C@H](NC(=O)[C@H](CC(C)C)NC(=O)[C@H](CC(C)C)NC(=O)[C@@H](N)Cc1ccc(O)cc1)C(=O)N[C@@H](CCCCN)C(=O)O` [YLLLK] (H-YLLLK-OH; N-terminus and C-terminus assumed), in data set [2] (incubation with ACE 0.5 h), the “Cleavage (%)” value came to 91.7% and the metabolised at 0.5 h, 2.4 mM was found to be 92 ± 2.8%. In addition, in data set [2] (incubation with ACE 3 h), the “Cleavage (%)” value was 94% and 94.3%; the metabolised at 3 h, 2.4 mM is 94 ± 2.7%. Further, in data set [2], the metabolised at 1 h, 2.4 mM was determined as 93 ± 1.9% and the metabolised at 2 h, 2.4 mM came out at 94 ± 3%. In addition, in data set [3], the IC50 came to 47 µM, the “ACE-Inhibitory Capacity (%) With Pre-Incubation” value amounted to 80 ± 2.04% and the “ACE-Inhibitory Capacity (%) Without Pre-Incubation” value is 100 ± 2.99%.
On to CRQNTLGHNTQTSIAQ, for which the Ki at ACE (setting [4]) is 210 µM.
For `C[C@H](NC(=O)[C@@H](N)Cc1c[nH]c2ccccc12)C(=O)N[C@@H](Cc1ccccc1)C(=O)N[C@@H](CO)C(=O)O` [WAFS] (H-WAFS-OH; N-terminus and C-terminus assumed), the Ki in data set [1] amounted to 2 mM. Further, in data set [2] (incubation with ACE 0.5 h), the “Cleavage (%)” value worked out at 43% and the metabolised at 0.5 h, 2.4 mM came to 43 ± 2%. For the same molecule, in data set [2] (incubation with ACE 3 h), the “Cleavage (%)” value is given as 68% and the metabolised at 3 h, 2.4 mM was 68 ± 3.4%. In addition, in data set [2], the metabolised at 1 h, 2.4 mM worked out at 42 ± 1.6% and the metabolised at 2 h, 2.4 mM stood at 63 ± 3%. Also, in data set [3], the half-inhibitory concentration (IC50) turned out to be 202 µM, the “ACE-Inhibitory Capacity (%) With Pre-Incubation” value turned out to be 56 ± 1.34% and the “ACE-Inhibitory Capacity (%) Without Pre-Incubation” value is listed as 55 ± 1.81%.
Consider WVYY, for which the Ki at ACE (ref Udenigwe, et al. 31) was 60 µM.
